Assay results published in the supplement of paper PMC12494721.
Structures can show the parent of a compound that is named as a salt.

What was measured:
Details in all cases: incubation time: 27 h, anaerobic, 37 °C
[1] = tested on: Klebsiella aerogenes DSM 30053; test: fold change of Histamine concentration vs plate DMSO controls (fold change (ratio)); higher = more amine produced
Method: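 Dose-response follow-up: bacteria (E. coli IAI1, K. aerogenes DSM 30053, C. sporogenes DSM 1664, R. gnavus DSM 108212) were grown anaerobically in mGAM at 37 °C for 27 h with compound at 0.6125-20 µM. Amines were measured in the whole culture by targeted LC-MS/MS. Metabolite fold change and OD595 fold change are relative to plate DMSO controls; n=2 biological replicates. OD fold changes are not clipped, so slightly negative values mean no growth.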

[2] = tested on: Ruminococcus gnavus DSM 108212; test: fold change of Tryptamine concentration vs plate DMSO controls (fold change (ratio)); higher = more amine produced
[3] = tested on: Klebsiella aerogenes DSM 30053; test: fold change of Cadaverine concentration vs plate DMSO controls (fold change (ratio)); higher = more amine produced
[4] = tested on: Klebsiella aerogenes DSM 30053; test: fold change of Putrescine concentration vs plate DMSO controls (fold change (ratio)); higher = more amine produced
[5] = tested on: Ruminococcus gnavus DSM 108212; test: fold change of 2-Phenylethylamine concentration vs plate DMSO controls (fold change (ratio)); higher = more amine produced
[6] = tested on: Ruminococcus gnavus DSM 108212; test: growth (OD595) fold change vs plate DMSO controls (fold change (ratio)); higher = more growth
[7] = tested on: Klebsiella aerogenes DSM 30053; test: as above
[8] = tested on: Clostridium sporogenes DSM 1664; test: fold change of Tryptamine concentration vs plate DMSO controls (fold change (ratio)); higher = more amine produced
[9] = tested on: Clostridium sporogenes DSM 1664; test: growth (OD595) fold change vs plate DMSO controls (fold change (ratio)); higher = more growth
[10] = tested on: Escherichia coli IAI1; test: fold change of Cadaverine concentration vs plate DMSO controls (fold change (ratio)); higher = more amine produced
[11] = tested on: Escherichia coli IAI1; test: fold change of Putrescine concentration vs plate DMSO controls (fold change (ratio)); higher = more amine produced
[12] = tested on: Escherichia coli IAI1; test: growth (OD595) fold change vs plate DMSO controls (fold change (ratio)); higher = more growth

N[C@@H]1CCCCN(c2c(F)cc3c(=O)c(C(=O)O)cn(C4CC4)c3c2Cl)C1 [Besifloxacin hydrochloride]
Details	fold change of 2-Phenylethylamine concentration, [5]	fold change of Cadaverine concentration, [3]	fold change of Histamine concentration, [1]	fold change of Putrescine concentration, [4]	fold change of Tryptamine concentration, [2]	growth, [6]	growth, [7]
0.6125 µM	1.11	0.955	1.18	1.02	1.36	1.01	1.32
1.25 µM	0.219	1.03	0.938	1.22	0.415	0.127	0.476
2.5 µM	0.487	1.02	0.188	1.26	0.746	0.193	0.277
5 µM	0.44	1.02	0.166	1.36	0.657	0.207	0.336
10 µM	0.321	1	0.185	1.43	0.451	0.22	0.358
20 µM	0.296	0.981	0.241	1.4	0.385	0.182	0.302

Oc1c(Cl)cc(Cl)cc1Sc1cc(Cl)cc(Cl)c1O [Bithionol]
Details	fold change of Tryptamine concentration, [8]	growth, [9]
0.6125 µM	1.09	1.23
1.25 µM	1.06	1.2
2.5 µM	1.07	0.906
5 µM	0.891	0.716
10 µM	0.0764	0.142
20 µM	0.0165	-0.0314

COC(=O)N/N=C/c1c[n+]([O-])c2ccccc2[n+]1[O-] [Carbadox]
Details	fold change of Tryptamine concentration, [8]	growth, [9]
0.6125 µM	0.852	1.09
1.25 µM	0.79	0.89
2.5 µM	0.724	0.999
5 µM	0.739	1.04
10 µM	0.774	0.742
20 µM	0.343	0.333

Cn1nnnc1SCC1=C(C(=O)O)N2C(=O)[C@@H](NC(=O)[C@H](O)c3ccccc3)[C@H]2SC1 [Cefamandole sodium salt]
Details	fold change of 2-Phenylethylamine concentration, [5]	fold change of Tryptamine concentration, [2]	growth, [6]
0.6125 µM	0.85	0.992	1.26
1.25 µM	0.767	0.847	1.29
2.5 µM	0.996	1.2	1.53
5 µM	0.492	0.675	0.889
10 µM	0.244	0.357	0.479
20 µM	0.178	0.263	0.481

CO[C@@]1(NC(=O)C2SC(=C(C(N)=O)C(=O)O)S2)C(=O)N2C(C(=O)O)=C(CSc3nnnn3C)CS[C@@H]21 (stereo partly specified) [Cefotetan]
Details	fold change of Cadaverine concentration, [10]	fold change of Putrescine concentration, [11]	growth, [12]
0.6125 µM	1.08	0.781	0.849
1.25 µM	1.22	1.01	0.812
2.5 µM	1.18	0.823	0.978
5 µM	2.07	2.04	0.728
10 µM	2.24	2.6	0.123
20 µM	2.29	1.48	0.0366

CN(C)CCn1nnnc1SCC1=C(C(=O)O)N2C(=O)[C@@H](NC(=O)Cc3csc(N)n3)[C@H]2SC1 [Cefotiam hydrochloride]
Details	fold change of Cadaverine concentration, [10]	fold change of Putrescine concentration, [11]	fold change of Tryptamine concentration, [8]	growth, [9]	growth, [12]
0.6125 µM	1.29	0.767	1.02	0.8	0.969
1.25 µM	1.27	0.89	0.833	0.293	1.03
2.5 µM	1.71	2.91	0.0314	0.273	0.906
5 µM	1.34	0.839	0.0234	-0.0402	-0.0152
10 µM	0.568	0.15	0.025	-0.0341	-0.055
20 µM	0.594	0.148	0.0225	-0.0328	-0.0576

Cc1cc(O)c(C(=O)N[C@@H](C(=O)N[C@@H]2C(=O)N3C(C(=O)O)=C(CSc4nnnn4C)CS[C@H]23)c2ccc(O)cc2)cn1 [Cefpiramide]
Details	fold change of 2-Phenylethylamine concentration, [5]	fold change of Cadaverine concentration, [10]	fold change of Putrescine concentration, [11]	fold change of Tryptamine concentration, [2]	growth, [6]	growth, [12]
0.6125 µM	0.656	1.44	0.827	0.773	1.28	0.836
1.25 µM	0.288	1.57	1.34	0.388	0.921	0.802
2.5 µM	0.158	1.97	3.19	0.226	0.902	0.44
5 µM	0.132	2.19	2.27	0.183	0.827	0.259
10 µM	0.107	2.26	1.28	0.154	0.698	0.00195
20 µM	0.131	2.23	0.966	0.147	0.575	-0.0159

O=C(N[C@H](CO)[C@H](O)c1ccc([N+](=O)[O-])cc1)C(Cl)Cl [Chloramphenicol]
Details	fold change of 2-Phenylethylamine concentration, [5]	fold change of Tryptamine concentration, [2]	growth, [6]
0.6125 µM	1	1.05	0.858
1.25 µM	0.839	0.822	0.8
2.5 µM	0.648	0.595	0.814
5 µM	0.601	0.577	0.765
10 µM	0.477	0.506	0.647
20 µM	0.174	0.175	0.204
